Test results published in US20240279214A1, “ALPHA4 BETA7 INEGRIN ANTAGONISTS AND USES THEREOF” (XinThera, Inc., priority 2022, published 2024).
Like-named read-outs stand apart in the source and are kept apart here.

What was measured:
[1] = ether bond, 13-membered ring, 100.0 °C
[2] = target: T1, a4b7 integrin interaction with MadCAM-1 (Homo sapiens, UniProt P13612+P26010); assay: a4b7 Cell Capture Assay (RPMI8866 cells on MAdCAM-1 Fc coated plates); assay type: cell-based; details: 50% human serum, 1 mM MgCl2, 1 hour incubation, CellTiter-Glo luminescence, read-out: a4B7 cell capture assay RMPI8866-MadCAM EC50
T1 construct: capture of a4b7 integrin expressing cells, RPMI8866; endogenous in cells; host or cells: RPMI8866
T1 sequence (P13612 34-1032): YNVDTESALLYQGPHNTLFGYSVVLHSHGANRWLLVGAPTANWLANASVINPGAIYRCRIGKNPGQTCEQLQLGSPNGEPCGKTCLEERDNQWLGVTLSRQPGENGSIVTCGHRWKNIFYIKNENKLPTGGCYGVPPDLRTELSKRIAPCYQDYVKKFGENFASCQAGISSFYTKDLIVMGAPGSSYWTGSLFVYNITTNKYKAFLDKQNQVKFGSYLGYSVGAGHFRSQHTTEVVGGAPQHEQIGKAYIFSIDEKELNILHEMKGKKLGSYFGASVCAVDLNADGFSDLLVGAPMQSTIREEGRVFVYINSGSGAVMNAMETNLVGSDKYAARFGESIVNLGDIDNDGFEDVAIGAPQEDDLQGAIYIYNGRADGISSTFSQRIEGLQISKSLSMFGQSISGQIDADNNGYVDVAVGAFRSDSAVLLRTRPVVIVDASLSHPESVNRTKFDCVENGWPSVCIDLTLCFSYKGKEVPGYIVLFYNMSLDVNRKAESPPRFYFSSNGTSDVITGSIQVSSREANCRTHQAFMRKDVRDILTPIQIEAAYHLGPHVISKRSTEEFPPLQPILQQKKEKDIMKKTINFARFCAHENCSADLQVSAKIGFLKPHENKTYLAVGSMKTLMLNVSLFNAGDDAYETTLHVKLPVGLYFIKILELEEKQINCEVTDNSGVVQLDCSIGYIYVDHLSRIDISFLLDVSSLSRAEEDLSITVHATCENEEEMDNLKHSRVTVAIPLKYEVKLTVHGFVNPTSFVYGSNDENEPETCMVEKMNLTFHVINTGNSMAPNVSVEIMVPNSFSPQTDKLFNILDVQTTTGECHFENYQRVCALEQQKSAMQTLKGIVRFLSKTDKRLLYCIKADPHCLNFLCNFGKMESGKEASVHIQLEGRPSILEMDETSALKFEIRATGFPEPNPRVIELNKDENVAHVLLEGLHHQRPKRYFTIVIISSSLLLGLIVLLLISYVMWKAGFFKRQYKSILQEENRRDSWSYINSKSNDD
T1 sequence (P26010 20-798): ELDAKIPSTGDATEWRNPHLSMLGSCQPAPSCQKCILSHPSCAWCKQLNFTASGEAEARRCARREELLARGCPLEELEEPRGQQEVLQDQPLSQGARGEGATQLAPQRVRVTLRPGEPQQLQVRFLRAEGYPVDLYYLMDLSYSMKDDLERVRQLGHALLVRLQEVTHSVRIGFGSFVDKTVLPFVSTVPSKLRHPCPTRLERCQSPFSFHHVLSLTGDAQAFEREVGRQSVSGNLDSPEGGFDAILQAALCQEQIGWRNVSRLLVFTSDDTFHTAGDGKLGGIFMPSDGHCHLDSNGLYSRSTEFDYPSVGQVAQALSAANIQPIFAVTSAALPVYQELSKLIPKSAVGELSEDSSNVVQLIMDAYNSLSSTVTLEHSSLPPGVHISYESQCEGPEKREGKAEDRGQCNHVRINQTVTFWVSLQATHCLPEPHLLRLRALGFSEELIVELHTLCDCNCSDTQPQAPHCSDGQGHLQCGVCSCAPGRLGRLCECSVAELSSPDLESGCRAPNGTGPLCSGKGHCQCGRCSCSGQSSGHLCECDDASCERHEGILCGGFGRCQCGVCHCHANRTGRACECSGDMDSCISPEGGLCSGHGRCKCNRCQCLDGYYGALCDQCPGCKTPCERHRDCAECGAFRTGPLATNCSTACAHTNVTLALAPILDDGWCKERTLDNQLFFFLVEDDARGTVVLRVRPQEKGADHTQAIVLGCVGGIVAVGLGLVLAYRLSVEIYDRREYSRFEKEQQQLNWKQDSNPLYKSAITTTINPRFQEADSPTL
How it was run: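 RPMI8866 cells (1.0×10^6 cells/mL) in 1 mM MgCl2, 25 mM HEPES, 50% human serum were added to plates coated with human MAdCAM-1–IgG1 Fc (1.0 μg/mL) and exposed to compound (9-point, 0.08–1000 nM, 0.1% DMSO) for 1 h at 37 °C. Bound cells were read by CellTiter-Glo luminescence. IC50 came from 4-parameter fit of normalized % inhibition.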

Compound: CCOC(=O)C[C@@H]1NC(=O)C(n2cc(CCN3CC(F)C3)c(C(F)(F)F)cc2=O)c2cc(ccc2F)Oc2ccc(C)c(C)c2-c2cc(C)c(F)c1c2 (stereo in doubt)
- ring closure, isolated yield ([1]; from CCOC(=O)C[C@H](NC(=O)C(c1cc(Br)ccc1F)n1cc(CCN2CC(F)C2)c(C(F)(F)F)cc1=O)c1cc(-c2c(O)ccc(C)c2C)cc(C)c1F, CuI/(1R,2R)-N1,N2-dimethylcyclohexane-1,2-diamine/K2CO3, dioxane, 15.0 mM, 16.0 h): 64.7%

Compound: CCOC(=O)C[C@@H]1NC(=O)C(n2cc(CCN(C)C)c(C(F)(F)F)cc2=O)c2cccc(c2)Oc2cccc(C)c2-c2cc1c(F)c(C(F)(F)F)c2 (stereo in doubt)
- ring closure, isolated yield ([1]; from CCOC(=O)C[C@H](NC(=O)C(c1cccc(Br)c1)n1cc(CCN(C)C)c(C(F)(F)F)cc1=O)c1cc(-c2c(C)cccc2O)cc(C(F)(F)F)c1F, CuI/(1R,2R)-N1,N2-dimethylcyclohexane-1,2-diamine/K2CO3, dioxane, 68.3 mM, 16.0 h): 55.5%

Compound: CCOC(=O)C[C@@H]1NC(=O)C(n2cc(CCN3CC(F)C3)c(C(F)(F)F)cc2=O)c2cccc(c2)Oc2cccc(Cl)c2-c2cc1c(F)c(C(F)(F)F)c2 (some centres unmarked)
- ring closure, isolated yield ([1]; from CCOC(=O)C[C@H](NC(=O)C(c1cccc(Br)c1)n1cc(CCN2CC(F)C2)c(C(F)(F)F)cc1=O)c1cc(-c2c(O)cccc2Cl)cc(C(F)(F)F)c1F, CuI/N1,N2-dimethylcyclohexane-1,2-diamine/K2CO3, dioxane, 15.3 mM, 16.0 h): 55.1%

Compound: CCOC(=O)C[C@@H]1NC(=O)C(n2cc(CCN3CC(F)C3)c(C(F)(F)F)cc2=O)c2cc(ccc2F)Oc2cc(F)cc(C)c2-c2cc(C)c(F)c1c2 (stereo in doubt)
- ring closure, isolated yield ([1]; from CCOC(=O)C[C@H](NC(=O)C(c1cc(Br)ccc1F)n1cc(CCN2CC(F)C2)c(C(F)(F)F)cc1=O)c1cc(-c2c(C)cc(F)cc2O)cc(C)c1F, CuI/K2CO3/(1R,2R)-N1,N2-dimethylcyclohexane-1,2-diamine, dioxane, 30.0 mM, 16.0 h): 48.2%

Compound: CCOC(=O)C[C@@H]1NC(=O)C(n2cc(CCN3CC(F)C3)c(C(F)(F)F)cc2=O)c2cc(ccc2F)Oc2cccc(C)c2-c2cc(F)c(F)c1c2 (stereo in doubt)
- ring closure, isolated yield ([1]; from CCOC(=O)C[C@H](NC(=O)C(c1cc(Br)ccc1F)n1cc(CCN2CC(F)C2)c(C(F)(F)F)cc1=O)c1cc(-c2c(C)cccc2O)cc(F)c1F, CuI/K2CO3/N1,N2-dimethylcyclohexane-1,2-diamine, 1,4-dioxane, 51.7 mM, 16.0 h): 44.4%

Compound: COC(=O)C[C@@H]1NC(=O)C(n2ccc(C(F)(F)F)cc2=O)c2cc(ccc2F)Oc2cccc(C)c2-n2cc1c(C(F)(F)F)n2 (some centres unmarked)
- ring closure, isolated yield ([1]; from COC(=O)C[C@H](NC(=O)C(c1cc(Br)ccc1F)n1ccc(C(F)(F)F)cc1=O)c1cn(-c2c(C)cccc2O)nc1C(F)(F)F, CuI/(1R,2R)-N,N'-dimethylcyclohexane-1,2-diamine/K2CO3, 1,4-dioxane, 65.0 mM, 2.0 h): 22.5%

Compound: CCOC(=O)C[C@@H]1NC(=O)C(n2ccc(C(F)(F)F)c(CC)c2=O)c2cc(ccc2F)Oc2cccc(C)c2-c2cc(C)c(F)c1c2 (some centres unmarked)
- ring closure, isolated yield ([1]; from CCOC(=O)C[C@H](NC(=O)C(c1cc(Br)ccc1F)n1ccc(C(F)(F)F)c(CC)c1=O)c1cc(-c2c(C)cccc2O)cc(C)c1F, CuI/(1R,2R)-N,N'-dimethylcyclohexane-1,2-diamine/K2CO3, 1,4-dioxane, 20.0 mM, 16.0 h): 56.1%

Compound: CCOC(=O)C[C@@H]1NC(=O)C(n2cc(CCN3CC(F)C3)c(C(F)(F)F)cc2=O)c2cc(ccc2F)Oc2cc(Cl)cc(C)c2-c2cc(C)c(F)c1c2 (stereo in doubt)
- ring closure, isolated yield ([1]; from CCOC(=O)C[C@H](NC(=O)C(c1cc(Br)ccc1F)n1cc(CCN2CC(F)C2)c(C(F)(F)F)cc1=O)c1cc(-c2c(C)cc(Cl)cc2O)cc(C)c1F, CuI/(1R,2R)-N1,N2-dimethylcyclohexane-1,2-diamine/K2CO3, dioxane, 47.0 mM, 16.0 h): 52.5%

Compound: CCOC(=O)C[C@@H]1NC(=O)C(n2cc(CCN3CC(F)(F)C3)c(C(F)(F)F)cc2=O)c2cc(ccc2F)Oc2cccc(C)c2-c2cc(C)c(F)c1c2 (some centres unmarked)
- ring closure, isolated yield ([1]; from CCOC(=O)C[C@H](NC(=O)C(c1cc(Br)ccc1F)n1cc(CCN2CC(F)(F)C2)c(C(F)(F)F)cc1=O)c1cc(-c2c(C)cccc2O)cc(C)c1F, CuI/(1R,2R)-N1,N2-dimethylcyclohexane-1,2-diamine/K2CO3, 1,4-dioxane, 26.0 mM, 16.0 h): 50.3%

Compound: ethyl 2-[(14S,17S)-20-cyclopropyl-12,19-difluoro-3-methyl-15-oxo-14-[2-oxo-4-(trifluoromethyl) pyridin-1-yl]-8-oxa-16-azatetracyclo [16.3.1.1^{9,13}.0^{2,7}]tricosa-1(22),2(7),3,5,9,11,13(23),18,20-nonaen-17-yl]acetate
- ring closure, isolated yield ([1]; CuI/K2CO3/(1R,2R)-N1,N2-dimethylcyclohexane-1,2-diamine, 1,4-dioxane, 33.3 mM): 56.2%

Compound: CCOC(=O)C[C@@H]1NC(=O)C(n2c(=O)c3ccncc3n(C)c2=O)c2cc(ccc2F)Oc2cccc(C)c2-c2cc(C)c(F)c1c2 (some centres unmarked)
- ring closure, isolated yield ([1]; from CCOC(=O)C[C@H](NC(=O)C(c1cc(Br)ccc1F)n1c(=O)c2ccncc2n(C)c1=O)c1cc(-c2c(C)cccc2O)cc(C)c1F, CuI/K2CO3/(1R,2R)-N1,N2-dimethylcyclohexane-1,2-diamine, 1,4-dioxane, 50.0 mM, 2.0 h): 82.6%

Compound: CCOC(=O)C[C@@H]1NC(=O)C(n2cc(CCN3CC(F)C3)c(C(F)(F)F)cc2=O)c2cc(ccc2F)Oc2cccc(Cl)c2-c2cc(C)c(F)c1c2 (stereo in doubt)
- ring closure, isolated yield ([1]; from CCOC(=O)C[C@H](NC(=O)C(c1cc(Br)ccc1F)n1cc(CCN2CC(F)C2)c(C(F)(F)F)cc1=O)c1cc(-c2c(O)cccc2Cl)cc(C)c1F, CuI/(1R,2R)-N1,N2-dimethylcyclohexane-1,2-diamine, 1,4-dioxane, 70.0 mM, 16.0 h): 49.7%

Compound: Cc1cc2cc(c1F)[C@H](CC(=O)O)NC(=O)[C@@H](n1cc(CCN3CC(F)C3)c(C(F)(F)F)cc1=O)c1cc(ccc1F)Oc1ccc(F)c(C)c1-2 (relative stereo) [Example 30, [(14R*,17S)-4,12,19-trifluoro-14-{5-[2-(3-fluoroazetidin-1-yl)ethyl]-2-oxo-4-(trifluoromethyl)pyridin-1-yl}-3,20-dimethyl-15-oxo-8-oxa-16-azatetracyclo[16.3.1.1^{9,13}.0^{2,7}]tricosa-1(22),2(7),3,5,9,11,13(23),18,20-nonaen-17-yl]acetic acid]
- EC50 [2]: 2.6 nM

Compound: Cc1ccc2c(c1C)-c1cc(C)c(F)c(c1)[C@H](CC(=O)O)NC(=O)[C@@H](n1cc(CCN3CC(F)C3)c(C(F)(F)F)cc1=O)c1cc(ccc1F)O2 (relative stereo) [Example 33, [(14R*,17S)-12,19-difluoro-14-{5-[2-(3-fluoroazetidin-1-yl)ethyl]-2-oxo-4-(trifluoromethyl)pyridin-1-yl}-3,4,20-trimethyl-15-oxo-8-oxa-16-azatetracyclo[16.3.1.1^{9,13}.0^{2,7}]tricosa-1(22),2(7),3,5,9,11,13(23),18,20-nonaen-17-yl]acetic acid]
- EC50 [2]: 50 nM
